{"source": "ChEMBL document CHEMBL4800722", "about": "“Data for DCP probe BI 605906” (2021)", "key": {"[1]": {"molecular_target": "Carbonic anhydrase (Homo sapiens) (UniProt P00918+P43166+P00915+P07451+P23280+O43570+Q9ULX7+Q16790+P22748+Q8N1Q1+Q9Y2D0+P35218)", "experiment": "CANHYDRASE Eurofins SafetyScreen44 (BI)", "assay_type": "protein assay", "details": "Compound concentration 10.0 uM"}, "[2]": {"molecular_target": "Cyclin-C/Cyclin-dependent kinase 19 (Homo sapiens) (UniProt Q9BWU1+P24863)", "experiment": "CDK11/CYCLIN C Invitrogen Lab (UK) kinase screen (BI)", "assay_type": "protein-complex assay", "details": "Compound concentration 1.0 uM"}, "[3]": {"molecular_target": "Phosphatidylinositol 3-kinase regulatory subunit beta/Phosphatidylinositol 4,5-bisphosphate 3-kinase catalytic subunit beta isoform (Homo sapiens) (UniProt P42338+O00459)", "experiment": "PIK3CB/PIK3R2 Invitrogen Lab (UK) kinase screen (BI)", "assay_type": "protein-complex assay", "details": "Compound concentration 1.0 uM"}, "[4]": {"molecular_target": "CDK9/Cyclin K (Homo sapiens) (UniProt P50750+O75909)", "experiment": "CDK9_CYCLINK Invitrogen Lab (UK) kinase screen (BI)", "assay_type": "protein-complex assay", "details": "Compound concentration 1.0 uM"}, "[5]": {"molecular_target": "Inhibitor of nuclear factor kappa-B kinase subunit alpha (Homo sapiens) (UniProt O15111)", "sequence (O15111 whole entry)": "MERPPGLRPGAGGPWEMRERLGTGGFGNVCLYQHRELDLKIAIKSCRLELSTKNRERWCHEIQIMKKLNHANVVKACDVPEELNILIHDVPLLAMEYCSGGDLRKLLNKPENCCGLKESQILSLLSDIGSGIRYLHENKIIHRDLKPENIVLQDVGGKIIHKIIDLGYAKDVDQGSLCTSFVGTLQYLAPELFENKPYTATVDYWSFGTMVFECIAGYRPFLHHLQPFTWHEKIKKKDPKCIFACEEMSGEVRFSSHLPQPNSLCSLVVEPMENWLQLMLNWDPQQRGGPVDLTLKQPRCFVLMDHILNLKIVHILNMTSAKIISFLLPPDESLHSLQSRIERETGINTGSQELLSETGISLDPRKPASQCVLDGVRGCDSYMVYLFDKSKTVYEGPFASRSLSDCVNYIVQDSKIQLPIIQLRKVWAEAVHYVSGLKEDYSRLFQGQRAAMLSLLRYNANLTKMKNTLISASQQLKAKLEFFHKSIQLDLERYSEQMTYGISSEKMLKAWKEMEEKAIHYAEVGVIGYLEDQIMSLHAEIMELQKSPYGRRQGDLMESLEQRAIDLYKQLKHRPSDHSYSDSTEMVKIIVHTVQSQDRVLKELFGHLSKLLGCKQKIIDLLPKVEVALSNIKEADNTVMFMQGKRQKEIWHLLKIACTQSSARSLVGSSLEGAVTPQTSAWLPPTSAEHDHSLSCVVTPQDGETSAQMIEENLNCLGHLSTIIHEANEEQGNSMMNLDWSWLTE", "experiment": "CHUK_IKKA Invitrogen Lab (UK) kinase screen (BI)"}, "[6]": {"molecular_target": "Homeodomain-interacting protein kinase 4 (Homo sapiens) (UniProt Q8NE63)", "experiment": "HIPK4 Invitrogen Lab (UK) kinase screen (BI)", "details": "Compound concentration 1.0 uM"}, "[7]": {"molecular_target": "Muscle, skeletal receptor tyrosine-protein kinase (Homo sapiens) (UniProt O15146)", "sequence (O15146 whole entry)": "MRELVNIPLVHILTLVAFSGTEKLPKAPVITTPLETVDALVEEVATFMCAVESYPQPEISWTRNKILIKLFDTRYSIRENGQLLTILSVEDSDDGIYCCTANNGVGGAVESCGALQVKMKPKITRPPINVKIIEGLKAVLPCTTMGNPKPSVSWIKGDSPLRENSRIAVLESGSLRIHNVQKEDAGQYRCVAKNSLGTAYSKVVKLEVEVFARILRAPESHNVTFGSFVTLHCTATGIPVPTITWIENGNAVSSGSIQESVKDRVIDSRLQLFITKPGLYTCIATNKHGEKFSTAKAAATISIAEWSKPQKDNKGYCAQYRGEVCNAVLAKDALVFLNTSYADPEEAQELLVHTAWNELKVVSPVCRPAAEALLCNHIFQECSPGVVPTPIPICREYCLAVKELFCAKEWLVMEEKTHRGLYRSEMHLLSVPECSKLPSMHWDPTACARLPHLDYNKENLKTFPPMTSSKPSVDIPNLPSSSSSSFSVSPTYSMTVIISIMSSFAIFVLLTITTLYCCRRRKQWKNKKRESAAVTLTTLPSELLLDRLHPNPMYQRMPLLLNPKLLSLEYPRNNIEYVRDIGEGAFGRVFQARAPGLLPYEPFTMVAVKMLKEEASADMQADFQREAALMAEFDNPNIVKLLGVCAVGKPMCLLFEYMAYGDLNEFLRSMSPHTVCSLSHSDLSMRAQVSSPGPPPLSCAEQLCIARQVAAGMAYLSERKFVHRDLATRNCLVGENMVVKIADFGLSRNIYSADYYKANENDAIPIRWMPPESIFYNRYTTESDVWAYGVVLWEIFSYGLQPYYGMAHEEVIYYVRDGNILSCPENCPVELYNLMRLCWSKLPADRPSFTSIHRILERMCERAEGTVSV", "experiment": "MUSK Invitrogen Lab (UK) kinase screen (BI)", "details": "Compound concentration 1.0 uM"}, "[8]": {"molecular_target": "Ribosomal protein S6 kinase alpha-5 (Homo sapiens) (UniProt O75582)", "experiment": "RPS6KA5 Invitrogen Lab (UK) kinase screen (BI)", "details": "Compound concentration 1.0 uM"}, "[9]": {"molecular_target": "5-hydroxytryptamine receptor 4 (Cavia porcellus) (UniProt O70528)", "details": "Compound concentration 10.0 uM"}, "[10]": {"molecular_target": "AP2-associated protein kinase 1 (Homo sapiens, UniProt Q2M2I8)", "sequence (Q2M2I8 whole entry, looked up)": "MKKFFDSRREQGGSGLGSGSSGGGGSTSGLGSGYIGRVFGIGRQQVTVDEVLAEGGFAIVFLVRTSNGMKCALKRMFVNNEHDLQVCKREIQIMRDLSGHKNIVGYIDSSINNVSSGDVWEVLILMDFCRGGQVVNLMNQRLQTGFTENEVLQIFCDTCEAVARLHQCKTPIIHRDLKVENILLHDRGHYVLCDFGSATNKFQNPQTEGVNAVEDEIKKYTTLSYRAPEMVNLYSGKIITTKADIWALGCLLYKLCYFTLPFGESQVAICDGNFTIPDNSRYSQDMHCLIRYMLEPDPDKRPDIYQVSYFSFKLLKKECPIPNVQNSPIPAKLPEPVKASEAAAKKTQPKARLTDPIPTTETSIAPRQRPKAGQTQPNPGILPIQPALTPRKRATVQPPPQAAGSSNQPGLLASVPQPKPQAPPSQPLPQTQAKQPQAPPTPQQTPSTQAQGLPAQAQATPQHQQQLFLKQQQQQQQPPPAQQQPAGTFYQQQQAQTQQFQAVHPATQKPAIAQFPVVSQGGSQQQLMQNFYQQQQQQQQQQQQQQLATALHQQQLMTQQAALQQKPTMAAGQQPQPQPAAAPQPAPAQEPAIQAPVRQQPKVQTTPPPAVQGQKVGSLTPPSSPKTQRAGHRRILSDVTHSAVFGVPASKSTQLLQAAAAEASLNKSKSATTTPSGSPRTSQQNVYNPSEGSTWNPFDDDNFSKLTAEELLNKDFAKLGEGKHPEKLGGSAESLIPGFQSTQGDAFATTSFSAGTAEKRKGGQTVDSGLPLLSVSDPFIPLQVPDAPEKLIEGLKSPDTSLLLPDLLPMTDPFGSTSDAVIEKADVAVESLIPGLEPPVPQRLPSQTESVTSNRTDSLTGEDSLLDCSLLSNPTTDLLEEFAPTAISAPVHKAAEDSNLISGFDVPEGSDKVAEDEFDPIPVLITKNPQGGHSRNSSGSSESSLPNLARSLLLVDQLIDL"}, "[11]": {"molecular_target": "Cyclin-dependent kinase 2/cyclin E1 (Homo sapiens) (UniProt P24864+P24941)", "details": "Compound concentration 1.0 uM"}, "[12]": {"molecular_target": "Cyclin-dependent kinase 4/cyclin D1 (Homo sapiens) (UniProt P11802+P24385)", "details": "Compound concentration 1.0 uM"}, "[13]": {"molecular_target": "Rhodopsin kinase GRK1 (Homo sapiens) (UniProt Q15835)", "details": "Compound concentration 1.0 uM"}, "[14]": {"molecular_target": "T1, Interleukin-1 receptor-associated kinase 3 (Homo sapiens) (UniProt Q9Y616)", "T1 sequence (whole entry)": "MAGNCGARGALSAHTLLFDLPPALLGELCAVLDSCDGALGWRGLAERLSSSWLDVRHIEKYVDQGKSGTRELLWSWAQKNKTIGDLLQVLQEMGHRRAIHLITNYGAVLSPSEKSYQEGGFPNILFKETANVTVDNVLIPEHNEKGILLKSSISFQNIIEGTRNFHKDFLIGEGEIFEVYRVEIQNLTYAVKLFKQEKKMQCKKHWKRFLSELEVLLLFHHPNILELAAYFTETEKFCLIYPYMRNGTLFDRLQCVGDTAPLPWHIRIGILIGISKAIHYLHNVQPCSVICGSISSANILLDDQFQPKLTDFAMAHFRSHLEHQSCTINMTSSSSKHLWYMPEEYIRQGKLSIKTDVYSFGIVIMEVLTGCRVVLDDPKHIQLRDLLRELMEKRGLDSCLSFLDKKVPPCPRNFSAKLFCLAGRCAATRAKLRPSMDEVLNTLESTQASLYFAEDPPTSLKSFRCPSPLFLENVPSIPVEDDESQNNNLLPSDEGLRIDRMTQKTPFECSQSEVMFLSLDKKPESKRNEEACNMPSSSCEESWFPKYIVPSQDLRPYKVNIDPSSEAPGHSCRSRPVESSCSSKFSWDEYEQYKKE"}, "[15]": {"molecular_target": "Mitogen-activated protein kinase kinase kinase 19 (Homo sapiens) (UniProt Q56UN5)", "details": "Compound concentration 1.0 uM"}, "[16]": {"molecular_target": "Phosphatidylinositol 4-phosphate 5-kinase type-1 gamma (Homo sapiens) (UniProt O60331)", "details": "Compound concentration 1.0 uM"}, "[17]": {"molecular_target": "Membrane-associated tyrosine- and threonine-specific cdc2-inhibitory kinase (Homo sapiens) (UniProt Q99640)", "details": "Compound concentration 1.0 uM"}, "[18]": {"molecular_target": "Receptor-interacting serine/threonine-protein kinase 3 (Homo sapiens) (UniProt Q9Y572)", "sequence (Q9Y572 whole entry, looked up)": "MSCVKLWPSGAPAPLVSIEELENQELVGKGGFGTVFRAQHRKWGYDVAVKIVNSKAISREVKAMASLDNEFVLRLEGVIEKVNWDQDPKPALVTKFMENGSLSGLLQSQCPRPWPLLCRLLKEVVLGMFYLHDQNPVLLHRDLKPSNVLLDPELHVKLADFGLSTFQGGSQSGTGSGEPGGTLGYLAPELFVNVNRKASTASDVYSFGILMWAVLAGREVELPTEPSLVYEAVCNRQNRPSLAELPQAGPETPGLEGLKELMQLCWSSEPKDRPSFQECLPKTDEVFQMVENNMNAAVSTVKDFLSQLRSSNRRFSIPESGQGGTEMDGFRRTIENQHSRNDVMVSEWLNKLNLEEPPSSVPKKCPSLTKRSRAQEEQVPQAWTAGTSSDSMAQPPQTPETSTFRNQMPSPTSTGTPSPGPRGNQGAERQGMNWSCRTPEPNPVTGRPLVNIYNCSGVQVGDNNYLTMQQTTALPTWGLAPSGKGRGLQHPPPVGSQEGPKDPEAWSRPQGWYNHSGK", "details": "Compound concentration 1.0 uM"}, "[19]": {"molecular_target": "TGF-beta receptor type-2 (Homo sapiens) (UniProt P37173)", "details": "Compound concentration 1.0 uM"}, "[20]": {"molecular_target": "TRAF2 and NCK-interacting protein kinase (Homo sapiens) (UniProt Q9UKE5)", "details": "Compound concentration 1.0 uM"}, "[21]": {"molecular_target": "Tyrosine-protein kinase ABL2 (Homo sapiens) (UniProt P42684)", "details": "Compound concentration 1.0 uM"}, "[22]": {"molecular_target": "Serine/threonine-protein kinase MRCK alpha (Homo sapiens) (UniProt Q5VT25)", "details": "Compound concentration 1.0 uM"}, "[23]": {"molecular_target": "Ephrin type-A receptor 2 (Homo sapiens) (UniProt P29317)", "sequence (P29317 whole entry)": "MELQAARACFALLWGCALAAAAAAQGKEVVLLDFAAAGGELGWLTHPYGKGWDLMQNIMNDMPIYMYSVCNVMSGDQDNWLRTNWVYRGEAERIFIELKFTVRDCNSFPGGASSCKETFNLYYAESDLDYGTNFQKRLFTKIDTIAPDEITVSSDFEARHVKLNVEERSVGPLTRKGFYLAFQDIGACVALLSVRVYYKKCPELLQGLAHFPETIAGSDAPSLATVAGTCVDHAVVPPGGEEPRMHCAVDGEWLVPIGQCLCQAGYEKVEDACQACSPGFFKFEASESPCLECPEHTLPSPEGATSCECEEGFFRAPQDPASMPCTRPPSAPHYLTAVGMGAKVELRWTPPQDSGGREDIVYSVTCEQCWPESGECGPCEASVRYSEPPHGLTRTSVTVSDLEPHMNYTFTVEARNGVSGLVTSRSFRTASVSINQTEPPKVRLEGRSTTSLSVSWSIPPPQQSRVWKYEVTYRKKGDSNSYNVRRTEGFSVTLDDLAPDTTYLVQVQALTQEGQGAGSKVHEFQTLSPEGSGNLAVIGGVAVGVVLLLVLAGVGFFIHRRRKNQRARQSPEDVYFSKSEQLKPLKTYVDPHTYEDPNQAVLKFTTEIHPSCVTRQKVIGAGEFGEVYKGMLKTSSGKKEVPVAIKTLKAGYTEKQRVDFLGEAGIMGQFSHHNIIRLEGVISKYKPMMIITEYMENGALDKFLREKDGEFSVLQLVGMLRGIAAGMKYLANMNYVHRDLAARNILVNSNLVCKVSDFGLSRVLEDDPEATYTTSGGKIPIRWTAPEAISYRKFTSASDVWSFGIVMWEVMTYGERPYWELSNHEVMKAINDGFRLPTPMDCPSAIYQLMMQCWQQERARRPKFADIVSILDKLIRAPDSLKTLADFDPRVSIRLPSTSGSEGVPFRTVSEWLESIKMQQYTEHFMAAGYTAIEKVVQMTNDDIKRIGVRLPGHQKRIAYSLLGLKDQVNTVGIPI"}, "[24]": {"molecular_target": "Homeodomain-interacting protein kinase 1 (Homo sapiens) (UniProt Q86Z02)", "details": "Compound concentration 1.0 uM"}, "[25]": {"molecular_target": "Interleukin-1 receptor-associated kinase 4 (Homo sapiens) (UniProt Q9NWZ3)", "sequence (Q9NWZ3 whole entry)": "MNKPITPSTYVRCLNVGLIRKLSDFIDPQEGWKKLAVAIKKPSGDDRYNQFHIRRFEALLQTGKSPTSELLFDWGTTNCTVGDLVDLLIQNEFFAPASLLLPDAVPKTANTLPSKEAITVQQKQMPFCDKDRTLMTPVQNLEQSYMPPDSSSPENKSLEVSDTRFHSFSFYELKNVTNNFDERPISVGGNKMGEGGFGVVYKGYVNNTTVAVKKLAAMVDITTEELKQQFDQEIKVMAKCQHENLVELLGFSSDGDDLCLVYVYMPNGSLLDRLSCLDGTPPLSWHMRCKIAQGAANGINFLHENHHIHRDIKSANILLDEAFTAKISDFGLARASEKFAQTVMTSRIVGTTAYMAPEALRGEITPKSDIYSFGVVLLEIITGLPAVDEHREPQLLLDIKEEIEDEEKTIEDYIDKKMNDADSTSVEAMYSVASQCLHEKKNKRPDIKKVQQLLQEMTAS"}, "[26]": {"molecular_target": "Mitogen-activated protein kinase kinase kinase 14 (Homo sapiens) (UniProt Q99558)", "details": "Compound concentration 1.0 uM"}, "[27]": {"molecular_target": "Mitogen-activated protein kinase 10 (Homo sapiens) (UniProt P53779)", "details": "Compound concentration 1.0 uM"}, "[28]": {"molecular_target": "Myosin light chain kinase 2, skeletal/cardiac muscle (Homo sapiens) (UniProt Q9H1R3)", "details": "Compound concentration 1.0 uM"}, "[29]": {"molecular_target": "PI3-kinase p110-delta/p85-alpha (Homo sapiens) (UniProt P27986+O00329)", "details": "Compound concentration 1.0 uM"}, "[30]": {"molecular_target": "Serine/threonine-protein kinase pim-2 (Homo sapiens) (UniProt Q9P1W9)", "sequence (Q9P1W9 whole entry, looked up)": "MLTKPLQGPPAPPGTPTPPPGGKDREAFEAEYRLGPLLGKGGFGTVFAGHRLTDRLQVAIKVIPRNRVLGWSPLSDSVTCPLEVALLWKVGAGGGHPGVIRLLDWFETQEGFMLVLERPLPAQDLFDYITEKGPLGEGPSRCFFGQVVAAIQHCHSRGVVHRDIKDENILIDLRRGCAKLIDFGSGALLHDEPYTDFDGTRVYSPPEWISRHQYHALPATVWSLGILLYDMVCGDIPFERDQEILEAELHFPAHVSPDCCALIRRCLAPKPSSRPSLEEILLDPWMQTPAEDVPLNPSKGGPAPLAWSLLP", "details": "Compound concentration 1.0 uM"}, "[31]": {"molecular_target": "Protein kinase C iota type (Homo sapiens) (UniProt P41743)", "details": "Compound concentration 1.0 uM"}, "[32]": {"molecular_target": "Serine/threonine-protein kinase Sgk2 (Homo sapiens) (UniProt Q9HBY8)", "details": "Compound concentration 1.0 uM"}, "[33]": {"details": "Compound concentration 0.001 uM"}}, "data": [{"smiles": "CCC(F)(F)c1cc(N2CCC(S(C)(=O)=O)CC2)nc2sc(C(N)=O)c(N)c12", "note": "[BI-605906]", "values": [{"measurement": "residual activity", "setting": "[1]", "result": 86, "unit": "%"}, {"measurement": "residual activity", "setting": "[2]", "result": 83, "unit": "%"}, {"measurement": "residual activity", "setting": "[3]", "result": 112, "unit": "%"}, {"measurement": "residual activity", "setting": "[4]", "result": 88, "unit": "%"}, {"measurement": "residual activity", "setting": "[5]; Compound concentration 1.0 uM", "result": 67, "unit": "%"}, {"measurement": "residual activity", "setting": "[5]; Compound concentration 10.0 uM", "result": 27, "unit": "%"}, {"measurement": "residual activity", "setting": "[6]", "result": 77, "unit": "%"}, {"measurement": "residual activity", "setting": "[7]", "result": 84, "unit": "%"}, {"measurement": "residual activity", "setting": "[8]", "result": 102, "unit": "%"}, {"measurement": "residual activity", "setting": "[9]", "result": 98, "unit": "%"}, {"measurement": "residual activity", "setting": "[10]; [33]", "result": 101, "unit": "%"}, {"measurement": "residual activity", "setting": "[10]; Compound concentration 1.0 uM", "result": 13, "unit": "%"}, {"measurement": "residual activity", "setting": "[10]; Compound concentration 20.0 uM", "result": 4, "unit": "%"}, {"measurement": "residual activity", "setting": "[11]", "result": 94, "unit": "%"}, {"measurement": "residual activity", "setting": "[12]", "result": 99, "unit": "%"}, {"measurement": "residual activity", "setting": "[13]", "result": 87, "unit": "%"}, {"measurement": "residual activity", "setting": "[14]; [33]", "result": 93, "unit": "%"}, {"measurement": "residual activity", "setting": "[14]; Compound concentration 1.0 uM", "result": 24, "unit": "%"}, {"measurement": "residual activity", "setting": "[14]; Compound concentration 20.0 uM", "result": 14, "unit": "%"}, {"measurement": "residual activity", "setting": "[15]", "result": 98, "unit": "%"}, {"measurement": "residual activity", "setting": "[16]", "result": 96, "unit": "%"}, {"measurement": "residual activity", "setting": "[17]", "result": 90, "unit": "%"}, {"measurement": "residual activity", "setting": "[18]", "result": 100, "unit": "%"}, {"measurement": "residual activity", "setting": "[19]", "result": 87, "unit": "%"}, {"measurement": "residual activity", "setting": "[20]", "result": 99, "unit": "%"}, {"measurement": "residual activity", "setting": "[21]", "result": 91, "unit": "%"}, {"measurement": "residual activity", "setting": "[22]", "result": 95, "unit": "%"}, {"measurement": "residual activity", "setting": "[23]; Compound concentration 1.0 uM", "result": 93, "unit": "%"}, {"measurement": "residual activity", "setting": "[23]; Compound concentration 10.0 uM", "result": 63, "unit": "%"}, {"measurement": "residual activity", "setting": "[24]", "result": 101, "unit": "%"}, {"measurement": "residual activity", "setting": "[25]; Compound concentration 1.0 uM", "result": 100, "unit": "%"}, {"measurement": "residual activity", "setting": "[25]; Compound concentration 10.0 uM", "result": 90, "unit": "%"}, {"measurement": "residual activity", "setting": "[26]", "result": 100, "unit": "%"}, {"measurement": "residual activity", "setting": "[27]", "result": 101, "unit": "%"}, {"measurement": "residual activity", "setting": "[28]", "result": 98, "unit": "%"}, {"measurement": "residual activity", "setting": "[29]", "result": 87, "unit": "%"}, {"measurement": "residual activity", "setting": "[30]", "result": 99, "unit": "%"}, {"measurement": "residual activity", "setting": "[31]", "result": 105, "unit": "%"}, {"measurement": "residual activity", "setting": "[32]", "result": 99, "unit": "%"}]}]}
